Patent US12606863B2, “Bioluminescent detection of DNA synthesis” (Promega Corporation, priority 2021, dated 2026)

What was measured:
Type in all cases: cell-based
[1] = system: A549 cells; test: Incorporation of modified nucleosides into newly synthesized DNA, NanoBiT detection, Example 7; conditions: A549 5000 cells/well, 20 uM or 50 uM, 4.5 hours
Procedure: (§1) A549 cells plated at 5000 cells/well were cultured in medium containing PBI-9391, PBI-9392, or PBI-9393 at 20 uM (light blue bars) or 50 uM (dark blue bars) final concentration for 4.5 hours. Cells without modified nucleosides were used as a control (brown bars). Incorporation of modified nucleosides into DNA was determined by removing the media, fixing and permeabilizing the cells, denaturing DNA, and incubating with HaloTag-LgBiT (HT-LgBiT) and HaloTag-SmBiT (HT-SmBiT) diluted in PBS with 0.01% BSA at 50 nM final concentration. After 2 hours incubation, the reagents were removed, the samples were washed with PBS, NanoLuc substrate was added, and luminescence was measured (FIG. 4).

[2] = system: A549 cells; test: Simultaneous incorporation of modified nucleosides, all probes added together, NanoBiT detection, Example 8; conditions: all probes added together at 5 or 12.5 uM each; A549 5,000 and 1,000 cells per well; compared to control cells
Procedure: as §1, with “Cells” for “A549 cells plated at 5000 cells/well were cultured in medium containing PBI-9391, PBI-9392, or PBI-9393 at 20 uM (light blue bars) or 50 uM (dark blue bars) final concentration for 4.5 hours. Cells”
The experiment was conducted with A549 cells plated at 5,000 and 1,000 cells per well as described in Example 7.

[3] = system: A549 cells; test: Incorporation of modified nucleosides into newly synthesized DNA, detection with HT-LgBiT/HT-SmBiT (NANOBiT), Example 1; conditions: A549 500 cells/well, 10 uM, 4 hours, fixed, permeabilized, DNA denatured; HT-LgBiT and HT-SmBiT 50 nM
Procedure: A549 cells plated at 500 cells/well were cultured in medium containing PBI-7931 (FIG. 2A, top) or PBI-7960 (FIG. 2A, bottom) at 10 uM final concentration for 4 hours. Cells without modified nucleosides were used as control. After culturing, the media was removed, cells fixed, permeabilized, and DNA denatured using acid treatment. […] Following a one-hour incubation, NANOLUC substrate was added, and luminescence was measured (FIG. 2B).

[4] = system: A549 cells; test: Incorporation of modified chloroalkane nucleoside measured without DNA denaturation, Example 9; conditions: A549 5000 cells/well, 10 uM, 0.5 hours or 4 hours; HT-LgBiT and HT-SmBiT 25 nM
Procedure: A549 cells plated at 5000 cells/well were cultured in medium containing PBI-7960 at 10 uM final concentration for 0.5 hours (light blue bar) or 4 hours (dark blue bar). Cells without modified nucleosides were used as control (brown bar). Incorporation of modified nucleosides into DNA was determined by removing the media, fixing and permeabilizing the cells and incubating with HT-LgBiT and HT-SmBiT diluted in PBS with 0.01% BSA at 25 nM final concentration. After 1 hour incubation, the NanoLuc substrate was added, and luminescence was measured.

[5] = system: A549 cells; test: Inhibition of DNA replication measured by modified nucleoside incorporation and NANOBiT luminescence, Example 2; conditions: A549 2,000 cells/well, increasing doxorubicin for 2 hours, then PBI-7931 or -7960 at 10 uM for 4 hours
Procedure: A549 cells plated at 2,000 cells/well were treated with increasing concentrations of the DNA replication inhibitor doxorubicin for 2 hours in a tissue culture incubator. […] No compound was added to control cells. To measure the amount of newly synthesized DNA, HT-LgBiT and HT-SmBiT were added to the cells at 50 nM final concentration.

Row | SMILES | Incorporation into newly synthesized DNA detected via NanoBiT (FIG. 4) [1] | Light output after simultaneous incorporation into newly synthesized DNA (FIG. 5) [2] | Luminescence following incorporation of haloalkyl-modified nucleosides into newly-synthesized DNA (FIG. 2B) [3] | Incorporation detected without DNA denaturation (FIG. 6) [4] | Inhibition of DNA synthesis, detected by reduction in luminescence (FIG. 3) [5]
1 | Nc1ncnc2c1c(C#CCOC(=O)NCCOCCOCCCCCCCl)cn2[C@H]1C[C@H](O)[C@@H](CO)O1 [PBI-9393, 3-(4-amino-7-((2R,4S,5R)-4-hydroxy-5-(hydroxymethyl)tetrahydrofuran-2-yl)-7H-pyrrolo[2,3-d]pyrimidin-5-yl)prop-2-yn-1-yl(2-(2-((6-chlorohexyl)oxy)ethoxy)ethyl)carbamate] | incorporated into newly synthesized DNA | increase in light output |  |  | 
2 | Nc1nc(=O)n([C@H]2C[C@H](O)[C@@H](CO)O2)cc1C#CCOC(=O)NCCOCCOCCCCCCCl [PBI-9391, 3-(4-amino-1-((2R,4S,5R)-4-hydroxy-5-(hydroxymethyl)tetrahydrofuran-2-yl)-2-oxo-1,2-dihydropyrimidin-5-yl)prop-2-yn-1-yl (2-(2-((6-chlorohexyl)oxy)ethoxy)ethyl)carbamate] | incorporated into newly synthesized DNA | increase in light output |  |  | 
3 | O=C(NCCOCCOCCCCCCCl)OCC#Cc1cn([C@H]2CC(O)[C@@H](CO)O2)c(=O)[nH]c1=O (some centres unmarked) [PBI-7931] |  |  | Luminescence detected |  | 
4 | O=C(NCC#Cc1cn([C@H]2C[C@H](O)[C@@H](CO)O2)c(=O)[nH]c1=O)c1ccc(C(=O)NCCOCCOCCCCCCCl)cc1 [PBI-7960, N1-(2-(2-((6-chlorohexyl)oxy)ethoxy)ethyl)-N4-(3-(1-((2R,4S,5R)-4-hydroxy-5-(hydroxymethyl)tetrahydrofuran-2-yl)-2,4-dioxo-1,2,3,4-tetrahydropyrimidin-5-yl)prop-2-yn-1-yl)terephthalamide] |  | increase in light output | Luminescence detected | detected without DNA denaturation | 
5 | COc1cccc2c1C(=O)c1c(O)c3c(c(O)c1C2=O)C[C@@](O)(C(=O)CO)C[C@@H]3O[C@H]1C[C@H](N)[C@H](O)[C@H](C)O1 [doxorubicin] |  |  |  |  | Inhibition of DNA synthesis
6 | Nc1nc(=O)c2c(C#CCOC(=O)NCCOCCOCCCCCCCl)cn([C@H]3C[C@H](O)[C@@H](CO)O3)c2[nH]1 [PBI-9392, 3-(2-amino-7-((2R,4S,5R)-4-hydroxy-5-(hydroxymethyl)tetrahydrofuran-2-yl)-4-oxo-4,7-dihydro-1H-pyrrolo[2,3-d]pyrimidin-5-yl)prop-2-yn-1-yl(2-(2-((6-chlorohexyl)oxy)ethoxy)ethyl)carbamate] | incorporated into newly synthesized DNA | increase in light output |  |  | 
